From ChEMBL document CHEMBL4433195, “Biphenyloxy-alkyl-piperidine and azepane derivatives as histamine H3 receptor ligands” (Bioorg Med Chem, 2017)
Blank lines part the entries; values can stand above or below the compound they belong to.

Experiments:
Histamine H1 receptor [1] = target: Histamine H1 receptor (Homo sapiens, UniProt P35367); assay: Displacement of [3H]pyrilamine from human H1 receptor expressed in CHOK1 cells incubated for 60 mins by microbeta scintillation counter method; type: cell-based
Histamine H1 receptor (Homo sapiens, UniProt P35367), sequence (P35367 whole entry): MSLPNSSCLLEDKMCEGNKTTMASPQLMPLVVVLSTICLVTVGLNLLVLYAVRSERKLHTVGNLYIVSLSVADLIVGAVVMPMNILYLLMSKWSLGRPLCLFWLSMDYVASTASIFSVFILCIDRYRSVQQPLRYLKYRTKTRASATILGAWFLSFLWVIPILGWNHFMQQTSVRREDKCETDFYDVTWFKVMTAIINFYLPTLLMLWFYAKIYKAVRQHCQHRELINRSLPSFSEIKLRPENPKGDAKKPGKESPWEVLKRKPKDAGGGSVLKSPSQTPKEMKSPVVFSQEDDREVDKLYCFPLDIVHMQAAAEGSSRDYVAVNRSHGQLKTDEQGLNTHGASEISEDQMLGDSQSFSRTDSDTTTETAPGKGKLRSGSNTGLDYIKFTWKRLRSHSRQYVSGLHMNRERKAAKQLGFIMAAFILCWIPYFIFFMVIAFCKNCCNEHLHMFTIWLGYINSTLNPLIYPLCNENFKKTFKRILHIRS

Cytochrome P450 3A4 [2] = target: T1, Cytochrome P450 3A4 (Homo sapiens, UniProt P08684); assay: Activation of human recombinant CYP3A4 using luciferin as substrate at 12.5 to 25 uM preincubated for 10 mins followed by substrate addition and measured after 50 mins in presence of NADPH by CYP450-Glo assay; type: ADME; details: recombinant enzyme
T1 sequence (P08684 whole entry): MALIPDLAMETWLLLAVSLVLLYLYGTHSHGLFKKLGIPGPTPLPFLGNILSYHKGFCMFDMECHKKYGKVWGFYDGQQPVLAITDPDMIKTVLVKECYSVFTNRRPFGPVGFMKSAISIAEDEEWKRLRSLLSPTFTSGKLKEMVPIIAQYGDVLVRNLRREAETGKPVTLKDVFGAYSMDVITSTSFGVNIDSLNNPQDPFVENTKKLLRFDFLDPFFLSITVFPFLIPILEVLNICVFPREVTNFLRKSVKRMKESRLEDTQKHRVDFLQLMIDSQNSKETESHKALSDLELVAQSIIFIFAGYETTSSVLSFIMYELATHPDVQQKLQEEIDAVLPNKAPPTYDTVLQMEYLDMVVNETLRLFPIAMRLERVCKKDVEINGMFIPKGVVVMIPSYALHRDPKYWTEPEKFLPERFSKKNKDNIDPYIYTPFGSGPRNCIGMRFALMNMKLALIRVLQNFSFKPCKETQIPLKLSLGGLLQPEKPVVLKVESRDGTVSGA

[3] = Metabolic stability in human recombinant liver microsomes assessed as metabolite M formation at 50 uM preincubated for 5 mins followed by NADPH addition and measured after 120 mins by UPLC-MS analysis; type: ADME, Microsome; details: 2 h
[4] = Metabolic stability in rat liver microsomes assessed as metabolite M2 formation at 50 uM preincubated for 5 mins followed by NADPH addition and measured after 30 mins UPLC-MS analysis; type: ADME, Microsome; details: 0.5 h
Histamine H3 receptor [5] = target: T2, Histamine H3 receptor (Homo sapiens, UniProt Q9Y5N1); assay: Antagonist activity at human H3R expressed in HEK293 cells assessed as reduction in R)(-)-alpha methylhistamine-induced inhibition of forskolin-induced cAMP accumulation by TR-FRET based LANCE ultra cAMP immunoassay; type: functional, cell-based
T2 sequence (Q9Y5N1 whole entry): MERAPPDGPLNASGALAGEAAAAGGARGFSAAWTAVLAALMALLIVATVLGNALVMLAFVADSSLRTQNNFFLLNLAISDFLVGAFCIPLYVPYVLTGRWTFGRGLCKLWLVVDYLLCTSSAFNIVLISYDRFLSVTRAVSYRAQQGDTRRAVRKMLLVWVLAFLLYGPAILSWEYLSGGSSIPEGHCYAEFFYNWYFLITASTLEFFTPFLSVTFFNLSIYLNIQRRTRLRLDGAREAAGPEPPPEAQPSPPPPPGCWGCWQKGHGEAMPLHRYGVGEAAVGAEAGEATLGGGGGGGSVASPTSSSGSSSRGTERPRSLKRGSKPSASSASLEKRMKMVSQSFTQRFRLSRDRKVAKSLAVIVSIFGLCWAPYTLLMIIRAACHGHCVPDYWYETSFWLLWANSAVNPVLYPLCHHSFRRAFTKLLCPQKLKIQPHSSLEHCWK

[6] = Metabolic stability in rat liver microsomes assessed as metabolite M1 formation at 50 uM preincubated for 5 mins followed by NADPH addition and measured after 30 mins UPLC-MS analysis; type: ADME, Microsome; details: 0.5 h
Rattus norvegicus [7] = species on record: Rattus norvegicus; assay: Reversal of RAMH-induced dipsogenia in Wistar rat (Krf:(WI) WU) assessed as inhibition of RAMH-induced drinking response pretreated for 30 mins followed by RAMH stimulation for 20 mins and measured for 30 mins; type: functional
[8] = Intrinsic clearance in rat liver microsomes measured up to 30 mins; type: ADME, Microsome; details: read-out: CLH
[9] = Metabolic stability in rat liver microsomes assessed as retention time at 50 uM preincubated for 5 mins followed by NADPH addition and measured after 30 mins UPLC-MS analysis; type: ADME, Microsome; details: 0.5 h
[10] = Metabolic stability in human recombinant liver microsomes assessed as metabolite M1 formation at 50 uM preincubated for 5 mins followed by NADPH addition and measured after 120 mins by UPLC-MS analysis; type: ADME, Microsome; details: 2 h
Cytochrome P450 3A4 [11] = target: T1, Cytochrome P450 3A4; assay: Inhibition of human recombinant CYP3A4 using luciferin as substrate at 0.025 to 25 uM preincubated for 10 mins followed by substrate addition and measured after 50 mins in presence of NADPH by CYP450-Glo assay; type: ADME; details: recombinant enzyme
[12] = Half life in rat liver microsomes measured up to 30 mins; type: ADME, Microsome
[13] = Metabolic stability in rat liver microsomes assessed as metabolite M3 formation at 50 uM preincubated for 5 mins followed by NADPH addition and measured after 30 mins UPLC-MS analysis; type: ADME, Microsome; details: 0.5 h
Histamine H4 receptor [14] = target: T3, Histamine H4 receptor (Homo sapiens, UniProt Q9H3N8); assay: Displacement of [3H]histamine from human recombinant H4R expressed in CHO cells incubated for 60 mins by microbeta scintillation counter method; type: cell-based
Histamine H3 receptor [15] = target: T2, Histamine H3 receptor; assay: Displacement of [3H]-N-alpha-methylhistamine from human recombinant full length H3R expressed in HEK293 cell membranes incubated for 90 mins by liquid scintillation counting method
[16] = Metabolic stability in human recombinant liver microsomes assessed as metabolite M2 formation at 50 uM preincubated for 5 mins followed by NADPH addition and measured after 120 mins by UPLC-MS analysis; type: ADME, Microsome; details: 2 h
[17] = Metabolic stability in human recombinant liver microsomes assessed as retention time at 50 uM preincubated for 5 mins followed by NADPH addition and measured after 120 mins by UPLC-MS analysis; type: ADME, Microsome; details: 2 h
[18] = target: Muscarinic acetylcholine receptor M3 (Cavia porcellus) (UniProt Q8VH26); assay: Antagonist activity at muscarinic M3 receptor in guinea-pig ileum assessed as inhibition of carbachol-induced contractions incubated for 15 mins; type: tissue-based
Muscarinic acetylcholine receptor M3 (Cavia porcellus), sequence (Q8VH26 1-587): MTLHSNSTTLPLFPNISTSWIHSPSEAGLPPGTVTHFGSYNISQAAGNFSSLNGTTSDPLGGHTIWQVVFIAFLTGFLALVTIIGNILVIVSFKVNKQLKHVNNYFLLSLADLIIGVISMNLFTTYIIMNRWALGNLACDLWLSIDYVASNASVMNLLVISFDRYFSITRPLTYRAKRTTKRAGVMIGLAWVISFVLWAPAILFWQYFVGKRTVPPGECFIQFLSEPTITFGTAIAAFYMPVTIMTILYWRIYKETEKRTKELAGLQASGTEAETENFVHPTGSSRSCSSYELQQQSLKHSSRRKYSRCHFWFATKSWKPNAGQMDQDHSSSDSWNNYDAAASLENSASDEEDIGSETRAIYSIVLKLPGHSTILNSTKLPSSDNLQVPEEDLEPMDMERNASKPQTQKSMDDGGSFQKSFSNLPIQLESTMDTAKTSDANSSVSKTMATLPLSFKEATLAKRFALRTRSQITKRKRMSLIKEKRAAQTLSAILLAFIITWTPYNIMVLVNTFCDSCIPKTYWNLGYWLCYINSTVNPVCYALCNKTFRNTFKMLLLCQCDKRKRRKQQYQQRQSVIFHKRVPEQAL

[19] = Metabolic stability in human recombinant liver microsomes assessed as metabolite M3 formation at 50 uM preincubated for 5 mins followed by NADPH addition and measured after 120 mins by UPLC-MS analysis; type: ADME, Microsome; details: 2 h
Histamine H1 receptor [20] = target: Histamine H1 receptor (Cavia porcellus, UniProt P31389); assay: (§1) Antagonist activity at histamine H1 receptor in guinea-pig ileum assessed as inhibition of histamine-induced contractions incubated for 15 mins; type: tissue-based; details: read-out: pA2 (converted)
Histamine H1 receptor (Cavia porcellus, UniProt P31389), sequence (P31389 whole entry): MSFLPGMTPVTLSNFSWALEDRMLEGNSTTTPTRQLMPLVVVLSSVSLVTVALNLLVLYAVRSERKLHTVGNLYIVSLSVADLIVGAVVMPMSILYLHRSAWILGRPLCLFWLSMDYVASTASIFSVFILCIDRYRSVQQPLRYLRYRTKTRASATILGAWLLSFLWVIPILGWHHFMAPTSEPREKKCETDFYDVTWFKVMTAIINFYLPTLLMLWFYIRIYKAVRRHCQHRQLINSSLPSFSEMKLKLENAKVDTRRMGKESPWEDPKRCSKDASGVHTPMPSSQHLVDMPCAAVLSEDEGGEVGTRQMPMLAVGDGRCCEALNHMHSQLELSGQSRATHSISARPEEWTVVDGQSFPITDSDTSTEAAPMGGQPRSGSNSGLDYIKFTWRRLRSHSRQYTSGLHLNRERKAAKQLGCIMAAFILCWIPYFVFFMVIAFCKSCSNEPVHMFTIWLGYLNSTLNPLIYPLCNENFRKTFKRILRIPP

[21] = target: Histamine H1 receptor (Cavia porcellus) (UniProt P31389); assay: as §1; type: tissue-based
Histamine H1 receptor (Cavia porcellus), sequence (P31389 whole entry): as above

Cytochrome P450 2D6 = Cytochrome P450 2D6 (Homo sapiens, UniProt P10635); assay: Inhibition of human recombinant CYP2D6 at >2.5 uM using luciferin as substrate preincubated for 10 mins followed by substrate addition and measured after 50 mins in presence of NADPH by CYP450-Glo assay; type: ADME; details: recombinant enzyme
Cytochrome P450 2D6, sequence (P10635 whole entry): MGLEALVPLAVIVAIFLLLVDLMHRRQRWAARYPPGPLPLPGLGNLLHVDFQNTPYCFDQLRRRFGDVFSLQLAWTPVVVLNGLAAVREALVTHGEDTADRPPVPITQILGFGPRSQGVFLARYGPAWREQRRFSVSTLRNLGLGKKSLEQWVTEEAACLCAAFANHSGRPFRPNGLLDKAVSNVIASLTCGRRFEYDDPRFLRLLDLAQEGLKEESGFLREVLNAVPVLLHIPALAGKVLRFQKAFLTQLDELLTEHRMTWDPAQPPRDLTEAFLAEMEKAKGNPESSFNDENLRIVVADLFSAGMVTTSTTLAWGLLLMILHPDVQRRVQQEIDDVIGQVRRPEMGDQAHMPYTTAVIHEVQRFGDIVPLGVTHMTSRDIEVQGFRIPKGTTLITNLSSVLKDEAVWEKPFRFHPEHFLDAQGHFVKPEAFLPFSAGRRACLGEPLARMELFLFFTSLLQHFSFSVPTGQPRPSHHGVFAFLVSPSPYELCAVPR

Histamine H4 receptor [22] = target: T3, Histamine H4 receptor; assay: Binding affinity to human H4R
Histamine H3 receptor [23] = target: T2, Histamine H3 receptor; assay: Binding affinity to human H3R expressed in rat C6 cells; type: cell-based
[24] = Mutagenicity in Salmonella typhimurium TA98 assessed as fold increase in number of positive wells over the solvent control baseline upto 10 uM incuabted for 90 mins and measured after 48 hrs by Ames test; type: toxicity; details: salmonella enterica subsp. enterica serovar typhimurium
[25] = target: T4, Voltage-gated inwardly rectifying potassium channel KCNH2 (Homo sapiens, UniProt Q12809)
T4 sequence (Q12809 whole entry): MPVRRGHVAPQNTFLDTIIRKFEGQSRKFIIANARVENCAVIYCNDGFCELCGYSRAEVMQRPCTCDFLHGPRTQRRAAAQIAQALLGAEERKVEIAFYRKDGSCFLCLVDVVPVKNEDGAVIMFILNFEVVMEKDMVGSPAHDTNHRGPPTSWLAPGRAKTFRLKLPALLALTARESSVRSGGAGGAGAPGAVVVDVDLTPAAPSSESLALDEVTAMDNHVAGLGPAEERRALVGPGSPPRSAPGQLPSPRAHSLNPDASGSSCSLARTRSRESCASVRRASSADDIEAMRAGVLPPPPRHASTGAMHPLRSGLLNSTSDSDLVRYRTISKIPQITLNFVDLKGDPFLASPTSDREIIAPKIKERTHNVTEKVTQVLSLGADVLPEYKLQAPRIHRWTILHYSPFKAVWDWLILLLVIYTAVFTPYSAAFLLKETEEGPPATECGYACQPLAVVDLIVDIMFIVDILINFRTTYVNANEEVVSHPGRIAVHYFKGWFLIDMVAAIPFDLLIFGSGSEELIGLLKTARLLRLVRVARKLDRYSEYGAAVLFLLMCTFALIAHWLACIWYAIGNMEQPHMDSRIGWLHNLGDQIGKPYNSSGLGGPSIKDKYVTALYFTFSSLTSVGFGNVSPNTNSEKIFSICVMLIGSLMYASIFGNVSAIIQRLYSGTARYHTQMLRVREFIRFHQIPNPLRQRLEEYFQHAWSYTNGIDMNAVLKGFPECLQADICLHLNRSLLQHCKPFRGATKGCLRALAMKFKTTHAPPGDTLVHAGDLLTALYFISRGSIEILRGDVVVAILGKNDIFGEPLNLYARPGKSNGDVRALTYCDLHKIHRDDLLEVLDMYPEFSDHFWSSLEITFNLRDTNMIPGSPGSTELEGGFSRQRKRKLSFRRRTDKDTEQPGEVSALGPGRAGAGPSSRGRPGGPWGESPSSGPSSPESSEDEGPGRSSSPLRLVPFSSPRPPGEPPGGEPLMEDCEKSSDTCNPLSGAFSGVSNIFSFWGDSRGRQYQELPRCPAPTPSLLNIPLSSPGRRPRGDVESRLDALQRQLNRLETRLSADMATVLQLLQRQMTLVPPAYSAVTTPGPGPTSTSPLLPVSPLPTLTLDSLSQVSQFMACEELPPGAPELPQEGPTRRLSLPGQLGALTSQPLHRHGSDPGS

[26] = Ratio of test compound IC50 to doxorubicin IC50 for cytotoxicity against human HepG2 cells assessed as cell viability incubated for 72 hrs by cellTiter 96 AQueous non-radioactive cell proliferation assay; type: cell-based; details: read-out: Ratio IC50
Homo sapiens = species on record: Homo sapiens; assay: Selectivity ratio of Ki for human H4R to Ki for human H3R
[27] = Mutagenicity in Salmonella typhimurium TA100 assessed as fold increase in number of positive wells over the solvent control baseline upto 10 uM incuabted for 90 mins and measured after 48 hrs by Ames test; type: toxicity; details: salmonella enterica subsp. enterica serovar typhimurium
HepG2 = assay: Cytotoxicity against human HepG2 cells assessed as cell viability incubated for 72 hrs by cellTiter 96 AQueous non-radioactive cell proliferation assay; type: cell-based; details: HepG2, 72 h
Rattus norvegicus [28] = assay: Reversal of RAMH-induced dipsogenia in Wistar rat (Krf:(WI) WU) assessed as inhibition of RAMH-induced drinking response at 1.25 mg/kg, ip pretreated for 30 mins followed by RAMH stimulation for 20 mins and measured for 30 mins; type: functional
Histamine H3 receptor [29] = target: T2, Histamine H3 receptor; assay: Binding affinity to human H3R
Histamine H4 receptor [30] = target: T3, Histamine H4 receptor; assay: Antagonist activity at human H4R expressed in HEK293 cells incubated for 20 mins by [35S]GTPgammaS binding assay; type: functional, cell-based
[31] = target: T4, Voltage-gated inwardly rectifying potassium channel KCNH2; assay: Displacement of [3H]Dofetilide from human ERG human expressed in HEK293 cells incubated for 45 mins; type: cell-based

Structure (SMILES): O=C(O)C(=O)O.c1ccc(-c2ccc(OCCCCCN3CCCCCC3)cc2)cc1
- Ki (Histamine H1 receptor [1]): 1270 nM
- Activity (Cytochrome P450 3A4 [2]): Active
- Drug metabolism [3]: Metabolite_Detected
- Drug metabolism [4]: Metabolite_Detected
- Activity (Histamine H3 receptor [5]): Dose-dependent effect
- IC50 (Histamine H3 receptor [5]): 9.08 nM
- Drug metabolism [6]: Metabolite_Detected
- ED50 (Rattus norvegicus [7]): 1.75 mg/kg
- inhibition (Rattus norvegicus [7]): Dose-dependent effect
- CLint scaled [8]: 52.9 mL/min/kg
- Retention_time [9]: 6 min
- Drug metabolism [10]: Metabolite_Detected
- inhibition (INH) (Cytochrome P450 3A4 [11]): Not Active
- half-life [12]: 23.6 min
- Drug metabolism [13]: Metabolite_Detected
- Ki (Histamine H4 receptor [14]): 21800 nM
- Ki (Histamine H3 receptor [15]): 34 nM
- Drug metabolism [16]: Metabolite_Detected
- Retention_time [17]: 6.08 min
- pKb [18]: 6.16
- Drug metabolism [19]: Metabolite_Detected
- Kb (Histamine H1 receptor [20]): 724 nM
- Activity [21]: Dose-dependent effect
- inhibition (INH) (Cytochrome P450 2D6): Active

Structure (SMILES): C[C@@H]1CC[C@@H](C)N1CCCOc1ccc(-c2ccc(C(=O)N3CCOCC3)cc2)cc1
- Ki (Histamine H4 receptor [22]): > 10000 nM
- Ki (Histamine H3 receptor [23]): 0.42 nM

Structure (SMILES): CN1[C@@H]2CC[C@H]1C[C@@H](OC(=O)C(CO)c1ccccc1)C2 (stereo partly drawn)
- pKb [18]: 8.99

Structure (SMILES): CC(C)(C)c1ccc(OCCCN2CCCCC2)cc1
- Ki (Histamine H3 receptor [15]): 131 nM

Structure (SMILES): O=C(O)C(=O)O.c1ccc(-c2ccc(OCCCCCN3CCCCC3)cc2)cc1
- fold change (FC) [24]: < 2
- IC50 [25]: 1750 nM
- selectivity ratio at 72 h [26]: > 30
- Activity (Cytochrome P450 3A4 [2]): Active
- Drug metabolism [3]: Metabolite_Notdetected
- Activity (Histamine H3 receptor [5]): Dose-dependent effect
- IC50 (Histamine H3 receptor [5]): 4.04 nM
- ED50 (Rattus norvegicus [7]): 2.72 mg/kg
- inhibition (Rattus norvegicus [7]): Dose-dependent effect
- Ratio Ki (Homo sapiens): 600
- Drug metabolism [10]: Metabolite_Notdetected
- inhibition (INH) (Cytochrome P450 3A4 [11]): Not Active
- fold change (FC) [27]: < 2
- Ki (Histamine H4 receptor [14]): 19900 nM
- Ki (Histamine H3 receptor [15]): 25 nM
- Drug metabolism [16]: Metabolite_Notdetected
- Retention_time [17]: 5.83 min
- pKb [18]: 6.35
- Drug metabolism [19]: Metabolite_Notdetected
- IC50 (HepG2): 17200 nM
- Kb (Histamine H1 receptor [20]): 295 nM
- Activity [21]: Dose-dependent effect
- inhibition (INH) (Cytochrome P450 2D6): Active

Structure (SMILES): Clc1ccc(CCCOCCCN2CCCCC2)cc1 [PITOLISANT]
- IC50 [25]: 1700 nM
- inhibition in vivo at 1.25 mg/kg (Rattus norvegicus [28]): 87%

Structure (SMILES): c1ccc(-c2ccc(OCCCCCCN3CCCCCC3)cc2)cc1
- Ki (Histamine H3 receptor [15]): 151 nM

Structure (SMILES): C[C@@H]1CCCN1[C@H]1C[C@H](c2ccc(-c3ccc(C#N)cc3)cc2)C1
- Ki (Histamine H3 receptor [29]): 0.17 nM

Structure (SMILES): CN1C[C@H]2CCN(c3ccc(-c4ccc(-n5ncccc5=O)cc4)cc3)[C@H]2C1
- Ki (Histamine H4 receptor [30]): > 10000 nM
- Ki [31]: 8830 nM

Structure (SMILES): c1ccc(CN(CC2=NCCN2)c2ccccc2)cc1 [ANTAZOLINE]
- Kb (Histamine H1 receptor [20]): 72.4 nM

Structure (SMILES): COc1cccc2c1C(=O)c1c(O)c3c(c(O)c1C2=O)C[C@@](O)(C(=O)CO)C[C@@H]3O[C@H]1C[C@H](N)[C@H](O)[C@H](C)O1 [DOXORUBICIN]
- IC50 (HepG2): 392 nM

Continued, values first:

- Ki (Histamine H3 receptor [15]): 115 nM
Structure (SMILES): c1ccc(-c2cccc(OCCCCCN3CCCCCC3)c2)cc1

- Ki (Histamine H3 receptor [15]): 89 nM
Structure (SMILES): CC1CCN(CCCCCOc2ccc(-c3ccccc3)cc2)CC1

- Ki (Histamine H3 receptor [15]): 18 nM
Structure (SMILES): c1ccc(-c2cccc(OCCCCCCN3CCCCCC3)c2)cc1

- Ki (Histamine H3 receptor [15]): 92 nM
Structure (SMILES): c1ccc(-c2ccc(OCCCCCCN3CCCCC3)cc2)cc1

- Ki (Histamine H3 receptor [15]): 76 nM
Structure (SMILES): c1ccc(-c2cccc(OCCCCCN3CCCCC3)c2)cc1

- Ki (Histamine H3 receptor [15]): 159 nM
Structure (SMILES): CC1CCN(CCCCCCOc2cccc(-c3ccccc3)c2)CC1

- Ki (Histamine H3 receptor [15]): 266 nM
Structure (SMILES): CC1CCN(CCCCCCOc2ccc(-c3ccccc3)cc2)CC1

- Ki (Histamine H3 receptor [15]): 157 nM
Structure (SMILES): CC1CCN(CCCCCOc2cccc(-c3ccccc3)c2)CC1

- Ki (Histamine H3 receptor [15]): 122 nM
Structure (SMILES): c1ccc(-c2cccc(OCCCCCCN3CCCCC3)c2)cc1
